Data from patent US20240425524A1, “SPIROTRICYCLE RIPK1 INHIBITORS AND METHODS OF USES THEREOF” (Merck Sharp & Dohme LLC, priority 2021, published 2024).

The compounds below were run against RIPK1 (Homo sapiens (Human), UniProt Q13546) (assay: RIPK1-ADP-Glo Enzymatic Assay). Conditions: recombinant GST-RIPK1 kinase domain (residues 1-327), 25 nM, ten-point titration, 30 minutes pre-incubation.
Type: biochemical
In short: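 GST-RIPK1 kinase domain (residues 1-327, Sf21-expressed; 25 nM final) was pre-incubated 30 min at ambient temperature with compound (10-point 1:3 series from 100000 nM, 1% DMSO) in HEPES pH 7.3 buffer with 20 mM MgCl2. The reaction was started with 900 μM ATP (addition solution) and 3 μM dephosphorylated MBP and ran 150 min. Read-out was ADP-Glo luminescence, with EC50 from a four-parameter fit.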

Chain of RIPK1 (Q13546 1-327): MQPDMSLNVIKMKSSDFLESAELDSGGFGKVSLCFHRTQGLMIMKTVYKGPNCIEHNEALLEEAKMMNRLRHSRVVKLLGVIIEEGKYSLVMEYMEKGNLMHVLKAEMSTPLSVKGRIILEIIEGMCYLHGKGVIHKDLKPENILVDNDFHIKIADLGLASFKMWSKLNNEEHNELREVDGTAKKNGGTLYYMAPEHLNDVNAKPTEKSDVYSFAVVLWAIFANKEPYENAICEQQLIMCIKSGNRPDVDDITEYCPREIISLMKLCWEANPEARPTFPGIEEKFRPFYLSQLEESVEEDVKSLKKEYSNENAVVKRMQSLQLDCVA

| Compound | EC50 [nM] |
| --- | --- |
| O=C1N2[C@H](c3cc(F)cc(F)c3)CCN2CC12CCN(c1ncc(Br)cn1)CC2 [Example 1.54, (S)-1-(5-bromopyrimidin-2-yl)-7′-(3,5-difluorophenyl)dihydro-1′H,3′H,5′H-spiro[piperidine-4,2′-pyrazolo[1,2-a]pyrazol]-1′-one] | 17 |
| N#Cc1cnc(N2CCC3(CC2)CN2CC[C@@H](c4cc(F)cc(F)c4)N2C3=O)cn1 [Example 2.19, (S)-5-(7′-(3,5-difluorophenyl)-1′-oxodihydro-l′H,3′H,5′H-spiro[piperidine-4,2′-pyrazolo[1,2-a]pyrazol]-1-y1)pyrazine-2-carbonitrile] | 27 |
| O=C1N2[C@H](c3cc(F)cc(F)c3)CCN2CC12CCN(c1cc(Cl)ccn1)CC2 [Example 1.11, (7′S)-1-(4-chloropyridin-2-yl)-7′-(3,5-difluorophenyl)dihydro-1′H,3′H,5′H-spiro[piperidine-4,2′-pyrazolo[1,2-a]pyrazol]-1′-one] | 28 |
| CC(=O)c1cnc(N2CCC3(CC2)CN2CC[C@@H](c4cc(F)cc(F)c4)N2C3=O)cc1Cl [Example 1.62, (S)-1-(5-acetyl-4-chloropyridin-2-yl)-7′-(3,5-difluorophenyl)dihydro-1′H,3′H,5′H-spiro[piperidine-4,2′-pyrazolo[1,2-a]pyrazol]-1′-one] | 20 |
| O=C1N2[C@H](c3cc(F)cc(F)c3)CCN2CC12CCN(c1cc(-n3ccnc3)ncn1)CC2 [Example 1.18, (S)-1-(6-(1H-imidazol-1-yl)pyrimidin-4-yl)-7′-(3,5-difluorophenyl)dihydro-1′H,3′H,5′H-spiro[piperidine-4,2′-pyrazolo[1,2-a]pyrazol]-1′-one] | 27 |
| O=C1N2[C@H](c3cc(F)cc(F)c3)CCN2CC12CCN(c1noc3ccccc13)CC2 [Example 1.81, (S)-1-(benzo[d]isoxazol-3-yl)-7′-(3,5-difluorophenyl)dihydro-1′H,3′H,5′H-spiro[piperidine-4,2′-pyrazolo[1,2-a]pyrazol]-1′-one] | 366 |
| O=C1N2[C@H](c3cc(F)cc(F)c3)CCN2CC12CCN(c1cc(N3CCCC3)ncn1)CC2 [Example 1.69, (S)-7′-(3,5-difluorophenyl)-1-(6-(pyrrolidin-1-yl)pyrimidin-4-yl)dihydro-1′H,3′H,5′H-spiro[piperidine-4,2′-pyrazolo[1,2-a]pyrazol]-l′-one] | 296 |
| CC(C)c1nc(Cl)cc(N2CCC3(CC2)CN2CC[C@@H](c4cc(F)cc(F)c4)N2C3=O)n1 [Example 1.47, (S)-1-(6-chloro-2-isopropylpyrimidin-4-yl)-7′-(3,5-difluorophenyl)dihydro-1′H,3′H,5′H-spiro[piperidine-4,2′-pyrazolo[1,2-a]pyrazol]-1′-one] | 153 |
| CCn1cnc2c(N3CCC4(CC3)CN3CC[C@@H](c5cc(F)cc(F)c5)N3C4=O)ncnc21 [Example 3.2, (S)-7′-(3,5-difluorophenyl)-1-(9-ethyl-9H-purin-6-yl)dihydro-l′H,3′H,5′H-spiro[piperidine-4,2′-pyrazolo[1,2-a]pyrazol]-1′-one] | 765 |
| O=C1N2[C@H](c3cc(F)cc(F)c3)CCN2CC12CCN(c1cccc(F)c1)CC2 [Example 10.1, (S)-7′-(3,5-difluorophenyl)-1-(3-fluorophenyl) dihydro-1′H,3′H,5′H-spiro [piperidine-4,2′-pyrazolo[1,2-α]pyrazol]-1′-one] | 47 |
| O=C1N2[C@H](c3cc(F)cc(F)c3)CCN2CC12CCN(c1ncc(F)cc1C(F)F)CC2 [Example 2.9, (S)-1-(3-(difluoromethyl)-5-fluoropyridin-2-y1)-7′-(3,5-difluorophenyl)dihydro-l′H,3′H,5′H-spiro[piperidine-4,2′-pyrazolo[1,2-a]pyrazol]-1′-one] | 792 |
| Cc1ccc(N2CCC3(CC2)CN2CC[C@@H](c4cc(F)cc(F)c4)N2C3=O)n2nccc12 [Example 9.1, (S)-7′-(3,5-difluorophenyl)-1-(4-methylpyrazolo[1,5-α]pyridin-7-yl) dihydro-1′H,3′H,5′H-spiro [piperidine-4,2′-pyrazolo[1,2-α]pyrazol]-1′-one] | 17 |
| O=C1N2[C@H](c3cc(F)cc(F)c3)CCN2CC12CCN(c1ncnc3ccsc13)CC2 [Example 1.13, (S)-7′-(3,5-difluorophenyl)-1-(thieno[3,2-d]pyrimidin-4-yl)dihydro-1′H,3′H,5′H-spiro[piperidine-4,2′-pyrazolo[1,2-a]pyrazol]-1′-one] | 16 |
| O=C1N2[C@H](c3cc(F)cc(F)c3)CCN2CC12CCN(c1ncnc3sccc13)CC2 [Example 1.68, (S)-7′-(3,5-difluorophenyl)-1-(thieno[2,3-d]pyrimidin-4-yl)dihydro-1′H,3′H,5′H-spiro [piperidine-4,2′-pyrazolo[1,2-a]pyrazol]-1′-one] | 24 |
| Cc1csc2ncnc(N3CCC4(CC3)CN3CC[C@@H](c5cc(F)cc(F)c5)N3C4=O)c12 [Example 1.73, (S)-7′-(3,5-difluorophenyl)-1-(5-methylthieno[2,3-d]pyrimidin-4-yl)dihydro-1′H,3′H,5′H-spiro[piperidine-4,2′-pyrazolo[1,2-a]pyrazol]-l′-one] | 4 |
| O=C1N2[C@H](c3cc(F)cc(F)c3)CCN2CC12CCN(c1nccc(C(F)(F)F)n1)CC2 [Example 1.92, (S)-7′-(3,5-difluorophenyl)-1-(4-(trifluoromethyl)pyrimidin-2-yl)dihydro-1′H,3′H,5′H-spiro[piperidine-4,2′-pyrazolo[1,2-a]pyrazol]-1′-one] | 91 |
| COc1nc(OC)nc(N2CCC3(CC2)CN2CC[C@@H](c4cc(F)cc(F)c4)N2C3=O)n1 [Example 1.31, (S)-7′-(3,5-difluorophenyl)-1-(4,6-dimethoxy-1,3,5-triazin-2-yl)dihydro-1′H,3′H,5′H-spiro [piperidine-4,2′-pyrazolo[1,2-a]pyrazol]-1′-one] | 285 |
| O=C(c1ccccc1)N1CCC2(CC1)CN1CC[C@@H](c3cc(F)cc(F)c3)N1C2=O [Example 5.1] | 13 |
| N#Cc1cccc(N2CCC3(CC2)CN2CC[C@@H](c4cc(F)cc(F)c4)N2C3=O)n1 [Example 1.58, (S)-6-(7′-(3,5-difluorophenyl)-1′-oxodihydro-1′H,3′H,5′H-spiro[piperidine-4,2′-pyrazolo[1,2-a]pyrazol]-1-yl)picolinonitrile] | 34 |
| COc1ccc(F)cc1C(=O)N1CCC2(CC1)CN1CC[C@@H](c3cc(F)cc(F)c3)N1C2=O [Example 4.14, (S)-7′-(3,5-difluorophenyl)-1-(5-fluoro-2-methoxybenzoyl) dihydro-l′H,3′H,5′H-spiro[piperidine-4,2′-pyrazolo[1,2-a]pyrazol]-l′-one] | 386 |
| Cc1cnn(-c2ccnc(N3CCC4(CC3)CN3CC[C@@H](c5cc(F)cc(F)c5)N3C4=O)c2)c1 [Example 2.26, (S)-7′-(3,5-difluorophenyl)-1-(4-(4-methyl-1H-pyrazol-1-yl)pyridin-2-yl)dihydro-1′H,3′H,5′H-spiro[piperidine-4,2′-pyrazolo[1,2-a]pyrazol]-1′-one] | 98 |
| Cn1cnc(N2CCC3(CC2)CN2CC[C@@H](c4cc(F)cc(F)c4)N2C3=O)cc1=O [Example 1.91, (S)-7′-(3,5-difluorophenyl)-1-(1-methyl-6-oxo-1,6-dihydropyrimidin-4-yl)dihydro-1′H,3′H,5′H-spiro [piperidine-4,2′-pyrazolo[1,2-a]pyrazol]-1′-one] | 750 |

Further lines, results first:

| EC50 [nM] | Compound |
| --- | --- |
| 50 | O=C(c1cc(F)ccc1Cl)N1CCC2(CC1)CN1CC[C@@H](c3cc(F)cc(F)c3)N1C2=O [Example 4.20, (S)-1-(2-chloro-5-fluorobenzoyl)-7′-(3,5-difluorophenyl) dihydro-1′H,3′H,5′H-spiro[piperidine-4,2′-pyrazolo[1,2-a]pyrazol]-l′-one] |
| 211 | N#Cc1cc(F)cc(C(=O)N2CCC3(CC2)CN2CC[C@@H](c4cc(F)cc(F)c4)N2C3=O)c1 [Example 4.7, (S)-3-(7′-(3,5-difluorophenyl)-1′-oxodihydro-1′H,3′H,5′H-spiro[piperidine-4,2′-pyrazolo[1,2-a]pyrazole]-1-carbonyl)-5-fluorobenzonitrile] |
| 335 | Cc1ccc(F)cc1C(=O)N1CCC2(CC1)CN1CC[C@@H](c3cc(F)cc(F)c3)N1C2=O [Example 4.13, (S)-7′-(3,5-difluorophenyl)-1-(5-fluoro-2-methylbenzoyl) dihydro-1′H,3′H,5′H-spiro[piperidine-4,2′-pyrazolo[1,2-a]pyrazol]-l′-one] |
| 122 | O=C1N2[C@H](c3cc(F)cc(F)c3)CCN2CC12CCN(c1ccc(F)cc1)CC2 [Example 10.3, (S)-7′-(3,5-difluorophenyl)-1-(4-fluorophenyl)dihydro-1′H,3′H,5′H-spiro[piperidine-4,2′-pyrazolo[1,2-a]pyrazol]-l′-one] |
| 50 | O=C(c1cnccn1)N1CCC2(CC1)CN1CC[C@@H](c3cc(F)cc(F)c3)N1C2=O [Example 4.1, (S)-7′-(3,5-difluorophenyl)-1-(pyrazine-2-carbonyl) dihydro-1′H,3′H,5′H-spiro [piperidine-4,2′-pyrazolo[1,2-a]pyrazol]-1′-one] |
| 830 | O=C1N2[C@H](c3cc(F)cc(F)c3)CCN2CC12CCN(S(=O)(=O)c1ccccc1)CC2 [Example 5.3, (S)-7′-(3,5-difluorophenyl)-1-(phenylsulfonyl) dihydro-l′H,3′H,5′H-spiro[piperidine-4,2′-pyrazolo[1,2-a]pyrazol]-l′-one] |
| 18 | O=C(c1cc(F)cc(Cl)c1)N1CCC2(CC1)CN1CC[C@@H](c3cc(F)cc(F)c3)N1C2=O [Example 4.19, (S)-1-(3-chloro-5-fluorobenzoyl)-7′-(3,5-difluorophenyl) dihydro-1′H,3′H,5′H-spiro[piperidine-4,2′-pyrazolo[1,2-a]pyrazol]-l′-one] |
| 32 | O=C(c1ccc(F)c(F)c1)N1CCC2(CC1)CN1CC[C@@H](c3cc(F)cc(F)c3)N1C2=O [Example 4.24, (S)-1-(3,4-difluorobenzoyl)-7′-(3,5-difluorophenyl) dihydro-1′H,3′H,5′H-spiro[piperidine-4,2′-pyrazolo[1,2-a]pyrazol]-l′-one] |
